Activity calls are given as the source filed them. No cut-off for these calls is given here.
Legend:
[1] = test system: SK-MEL-2; assay: Cytotoxicity against human SK-MEL-2 cells incubated for 48 hrs by MTT assay; format: functional, cell-based; conditions: SK-MEL-2, 48 h
[2] = test system: Quadruplex RNA; assay: Thermal stabilization of NRAS RNA G4 (unknown origin) assessed as change in melting temperature at 10 uM by CD spectrophotometer analysis; format: nucleic-acid assay
[3] = test system: SK-MEL-2; assay: Downregulation of NRAS protein level in human SK-MEL-2 cells after 72 hrs by Western blotting analysis; format: functional, cell-based; conditions: dose 0.5-1 µM
[4] = Toxicity in BALB/c nude mouse assessed as pain at 1 mg/kg, ip administered every day for 21 days; format: organism-based; conditions: in vivo, 504 h, time 21 day
[5] = Toxicity in BALB/c nude mouse assessed as weight loss at 1 mg/kg, ip administered every day for 21 days and measured every 3 days; format: organism-based; conditions: in vivo, 504 h, time 21 day
[6] = test system: MCF7; assay: Cytotoxicity against human MCF7 cells incubated for 48 hrs by MTT assay; format: functional, cell-based; conditions: MCF7, 48 h
[7] = test system: HL-60; assay: Cytotoxicity against human HL-60 cells incubated for 48 hrs by MTT assay; format: functional, cell-based; conditions: HL-60, 48 h
[8] = test system: SK-MEL-2; assay: Downregulation of NRAS mRNA level in human SK-MEL-2 cells by qRT-PCR analysis; format: functional, cell-based
[9] = test system: dsDNA; assay: Thermal stabilization of DNA duplex (ds18) (unknown origin); format: nucleic-acid assay
[10] = Toxicity in BALB/c nude mouse assessed as distress at 1 mg/kg, ip administered every day for 21 days; format: organism-based; conditions: in vivo, 504 h, time 21 day
[11] = test system: SK-MEL-2; assay: Antiproliferative activity against human SK-MEL-2 cells at 0.25 uM incubated for 48 hrs by MTT assay; format: functional
[12] = test system: A-375; assay: Cytotoxicity against human A-375 cells incubated for 48 hrs by MTT assay; format: functional, cell-based; conditions: A-375, 48 h
[13] = Thermal stabilization of thrombin binding aptamer (unknown origin)
[14] = test system: Quadruplex RNA; assay: Induction of NRAS RNA G4 stabilization in human SK-MEL-2 cells transfected with NRAS 5'-UTR wild-type assessed as reduction in ratio of RL to FL at 0.5 uM incubated for 66 hrs by dual luciferase reporter gene assay; format: cell-based
[15] = test system: SK-MEL-2; assay: Antitumor activity against human SK-MEL-2 cells xenografted in BALB/c nude mouse assessed as reduction in tumor growth inhibition at 1 mg/kg, ip administered every day for 21 days; format: functional; conditions: SK-MEL-2, 504 h, time 21 day, read-out: TGI
[16] = Toxicity in BALB/c nude mouse assessed as organ damage at 1 mg/kg, ip administered every day for 21 days; format: organism-based; conditions: in vivo, 504 h, time 21 day
[17] = target: Quadruplex RNA; assay: Binding affinity to NRAS RNA G4 (unknown origin) by SPR method; format: nucleic-acid assay
[18] = test system: Quadruplex RNA; assay: Induction of RNA G4s stabilization in human SK-MEL-2 cells assessed as increase in cytoplasmic rG4s after 24 hrs by immunofluorescence assay; format: cell-based
[19] = Toxicity in BALB/c nude mouse assessed as discomfort at 1 mg/kg, ip administered every day for 21 days; format: organism-based; conditions: in vivo, 504 h, time 21 day
[20] = test system: RNA; assay: Thermal stabilization of RNA hairpin (unknown origin); format: nucleic-acid assay
[21] = test system: Quadruplex DNA; assay: Thermal stabilization of KRAS G4 (unknown origin); format: nucleic-acid assay
[22] = test system: Quadruplex RNA; assay: Induction of NRAS RNA G4 stabilization in human SK-MEL-2 cells transfected with NRAS mutant assessed as reduction in ratio of RL to FL at 0.5 uM incubated for 66 hrs by dual luciferase reporter gene assay; format: cell-based
[23] = test system: Quadruplex DNA; assay: Thermal stabilization of NRAS DNA G4 (unknown origin) assessed as change in melting temperature at 10 uM by CD spectrophotometer analysis; format: nucleic-acid assay
[24] = test system: SK-MEL-2; assay: Inhibition of colony formation in human SK-MEL-2 cells at 0.13 to 0.25 uM after 10 days by crystal violet staining based assay; format: functional, cell-based; conditions: dose 0.13-0.25 µM, time 10.0 day
[25] = Drug localization in human SK-MEL-2 cells cytoplasm at 0.5 uM incubated for 24 hrs by laser scanning confocal microscopy; format: ADME, subcellular; conditions: sk-mel-2, 24 h
[26] = test system: HepG2; assay: Cytotoxicity against human HepG2 cells incubated for 48 hrs by MTT assay; format: functional, cell-based; conditions: HepG2, 48 h
[27] = test system: SK-MEL-2; assay: Antitumor activity against human SK-MEL-2 cells xenografted in BALB/c nude mouse assessed as reduction in tumor weight at 1 mg/kg, ip; format: functional, organism-based; conditions: time 21.0 day, TDE = time-dependent effect
[28] = test system: SK-MEL-2; assay: Antitumor activity against human SK-MEL-2 cells xenografted in BALB/c nude mouse assessed as reduction in tumor volume at 1 mg/kg, ip measured every 3 days; format: functional, organism-based; conditions: time 21.0 day, TDE = time-dependent effect

CCCCN(CCCC)CCCNc1ccc2nc3c(oc4ccc(F)cc43)c(NCCN3CCCCC3)c2c1 showed an IC50 [1] of 5.4 µM and a ΔTm [2] of 21.3 °C.

With CCCCN(CCCC)CCCOc1ccc2nc3c(oc4ccc(F)cc43)c(NCCN3CCCC3)c2c1 the IC50 [1] was 4 µM and the ΔTm [2] was 20.8 °C.

NCCNc1c2cc(OCCN3CCCCCC3)ccc2nc2c1oc1ccc(F)cc12 showed an IC50 [1] of 6.3 µM and a ΔTm [2] of 18.1 °C.

CCCCN(CCCC)CCOc1ccc2nc3c(oc4ccc(F)cc43)c(NCCN)c2c1 gave an IC50 [1] of 5.1 µM and a ΔTm [2] of 13.4 °C.

In the case of CN(C)CCCCCCOc1ccc2nc3c(oc4ccc(F)cc43)c(NCCN)c2c1, the IC50 [1] is reported as 7.1 µM and the ΔTm [2] is reported as 20.7 °C.

For CCN(CC)CCCOc1ccc2nc3c(oc4ccc(F)cc43)c(NCCCN)c2c1, the IC50 [1] was 3.9 µM and the ΔTm [2] was 25.3 °C.

In the case of CCCCN(CCCC)CCCOc1ccc2nc3c(oc4ccc(F)cc43)c(NCCCN)c2c1, the Activity [3] is reported as “Dose-Dependent Effect”, the Activity [4] is reported as “Non-Toxic” and the Activity [5] is reported as “Non-Toxic”. The IC50 [6] was 4.1 µM, the IC50 [7] was 2.7 µM and the Activity [8] was “inactive”. For the same molecule, the IC50 [1] was 2 µM, the Activity [9] was “inactive” and the Activity [10] was “Non-Toxic”. For the same molecule, the Activity [11] was 100%, the IC50 [12] was 4.5 µM and the Activity [13] was “inactive”. The Activity [14] was “Active”, the inhibition in vivo at 1 mg/kg [15] was 54.9% and the Activity [16] was “Non-Toxic”. For the same molecule, the Kd [17] was 2.31 µM, the Activity [18] was “Active” and the ΔTm [2] was 26.1 °C. For the same molecule, the Activity [19] was “Non-Toxic”, the Activity [20] was “inactive” and the Activity [21] was “inactive”. The Activity [22] was “inactive”, the ΔTm [23] was 19 °C and the inhibition [24] was “Active”. The Drug uptake [25] was “Active”, the IC50 [26] was 1.5 µM and the Activity [27] was “Tde”. The Activity [28] was “Tde”.

For NCCCNc1c2cc(OCCN3CCCCCC3)ccc2nc2c1oc1ccc(F)cc12, the IC50 [1] was 5.4 µM and the ΔTm [2] was 24.2 °C.

CCCCN(CCCC)CCOc1ccc2nc3c(oc4ccc(F)cc43)c(NCCN3CCCCC3)c2c1 showed an IC50 [1] of 8.8 µM and a ΔTm [2] of 26.2 °C.

CN(C)CCNc1c2cc(OCCN3CCCCCC3)ccc2nc2c1oc1ccc(F)cc12 showed an IC50 [1] of 6.6 µM and a ΔTm [2] of 18.1 °C.

CCCCN(CCCC)CCCOc1ccc2nc3c(oc4ccc(F)cc43)c(NCCN3CCCCC3)c2c1 showed an IC50 [1] of 5.5 µM and a ΔTm [2] of 24.4 °C.

With CCN(CC)CCCOc1ccc2nc3c(oc4ccc(F)cc43)c(NCCN3CCCC3)c2c1 the IC50 [1] was 7.1 µM and the ΔTm [2] was 26.3 °C.

Molecule CCCCN(CCCC)CCCNc1ccc2nc3c(oc4ccc(F)cc43)c(NCCN3CCCC3)c2c1 has an IC50 [1] of 3.4 µM and a ΔTm [2] of 19.8 °C.

For CCCCN(CCCC)CCCNc1ccc2nc3c(oc4ccc(F)cc43)c(NCCN(C)C)c2c1, the IC50 [1] was 3.4 µM and the ΔTm [2] was 19.4 °C.

With CN(C)CCCCCCOc1ccc2nc3c(oc4ccc(F)cc43)c(NCCCN)c2c1 the IC50 [1] was 7.7 µM and the ΔTm [2] was 25.3 °C.

CCCCN(CCCC)CCCOc1ccc2nc3c(oc4ccccc43)c(NCCN(C)C)c2c1 gave an IC50 [1] of 5.7 µM and a ΔTm [2] of 22 °C.

Molecule CCCCN(CCCC)CCCOc1ccc2nc3c(oc4ccc(F)cc43)c(NCCN3CCN(C)CC3)c2c1 has an IC50 [1] of 4 µM and a ΔTm [2] of 31.8 °C.

CCCCN(CCCC)CCOc1ccc2nc3c(oc4ccc(F)cc43)c(NCCN(C)C)c2c1 gave an IC50 [1] of 4.5 µM and a ΔTm [2] of 26.3 °C.

Work on Fc1ccc2oc3c(NCCN4CCCC4)c4cc(OCCN5CCCCCC5)ccc4nc3c2c1 yielded an IC50 [1] of 6.9 µM and a ΔTm [2] of 21.4 °C.

With CCCCN(CCCC)CCCNc1ccc2nc3c(oc4ccc(F)cc43)c(NCCN3CCN(C)CC3)c2c1 the IC50 [1] was 4.3 µM and the ΔTm [2] was 25.5 °C.

With CCCCN(CCCC)CCCOc1ccc2nc3c(oc4ccccc43)c(NCCN3CCCC3)c2c1 the IC50 [1] was 4.5 µM and the ΔTm [2] was 20.2 °C.

CCCCN(CCCC)CCCOc1ccc2nc3c(oc4ccc(F)cc43)c(NCCN)c2c1 showed an IC50 [1] of 2.2 µM and a ΔTm [2] of 22.9 °C.

For CCCCN(CCCC)CCCNc1ccc2nc3c(oc4ccc(F)cc43)c(NCCCN)c2c1, the IC50 [1] was 4.5 µM and the ΔTm [2] was 19.3 °C.

In the case of CCCCN(CCCC)CCOc1ccc2nc3c(oc4ccc(F)cc43)c(NCCCN)c2c1, the IC50 [1] is reported as 2 µM and the ΔTm [2] is reported as 22.1 °C.

For CSc1ccc(/C=C/c2ccc3nc4c(oc5ccccc54)c(NCCN4CCN(C)CC4)c3c2)cc1, the IC50 [1] was 3.2 µM and the ΔTm [2] was 16.8 °C.

Molecule CCCCN(CCCC)CCOc1ccc2nc3c(oc4ccc(F)cc43)c(NCCN3CCCC3)c2c1 has an IC50 [1] of 5.1 µM and a ΔTm [2] of 24 °C.

For CCCCN(CCCC)CCCOc1ccc2nc3c(oc4ccc(F)cc43)c(NCCN(C)C)c2c1, the IC50 [1] was 4 µM and the ΔTm [2] was 23.9 °C.

For CCN(CC)CCCOc1ccc2nc3c(oc4ccc(F)cc43)c(NCCN(C)C)c2c1, the IC50 [1] was 6.4 µM and the ΔTm [2] was 26.3 °C.

Molecule CCCCN(CCCC)CCOc1ccc2nc3c(oc4ccc(F)cc43)c(NCCN3CCN(C)CC3)c2c1 has an IC50 [1] of 7.6 µM and a ΔTm [2] of 30.6 °C.

Work on CCN(CC)CCCOc1ccc2nc3c(oc4ccc(F)cc43)c(NCCN)c2c1 yielded an IC50 [1] of 6.7 µM and a ΔTm [2] of 21.2 °C.

With CN(C)CCCCCCOc1ccc2nc3c(oc4ccc(F)cc43)c(NCCN3CCCC3)c2c1 the IC50 [1] was 7.4 µM and the ΔTm [2] was 24.8 °C.

With CN(C)CCCCCCOc1ccc2nc3c(oc4ccc(F)cc43)c(NCCN(C)C)c2c1 the IC50 [1] was 7.2 µM and the ΔTm [2] was 24.1 °C.

Molecule CCCCN(CCCC)CCCOc1ccc2nc3c(oc4ccccc43)c(NCCCN)c2c1 has an IC50 [1] of 2.6 µM and a ΔTm [2] of 19.5 °C.
